According to patent publication US20070082339A1, “Methods and compositions for screening for HDAC inhibitory activity” (priority 2005, published 2007):

Test system: A549 cells
Experiment: Microarray analysis of gene expression after LAQ824 treatment
Format: cell-based, human
Settings: A549, 500 nM vs DMSO
Procedure: The human lung carcinoma cell line A549 is obtained from the American Type Culture Collection (Rockville, Md.) and cultured in F-12K (ATCC, Manassas, Va.), 10% fetal bovine serum, and 1% penicillin/streptomycin (Life Technologies, Inc.). LAQ824 (Novartis) is added directly to the cell medium at a final concentration of 500 nM. Microarray analysis is performed essentially as described previously (Welsh, 2001). Total RNA is prepared from A549 cells treated with LAQ 824 or DMSO for 0.5, 2, 6, 12 and 24 h. Labelled cDNA is prepared and hybridized to Affymetrix U133 oligonucleotide GeneChip® (Affymetrix, Santa Clara, Calif.). The arrays were scanned on an Affymetrix GeneArray scanner and analyzed with GENECHIP Microarray Analysis Suite 5.0 software (MAS5) (Affymetrix). The data (raw data including image files and scanner files (Cel. Files) as well as the MAS5 normalized data are stored in the DEMON Database. The MAS5 normalized data are exported from the database and analyzed using GeneSpring software version 6.1. The genes are filtered for a minimal expression of 100 in at least one condition (the condition being defined as the average the value for the 3 samples corresponding to a given time point and a treatement) The gene expression changes (fold change) are calculated for each time point (t) as follow: (Gene expression level LAQ824 treated—(Average of the 3 replicates) Time (t))/(Gene expression level DMSO treated—(Average of the 3 replicates) Time (t)).
Any fold change <0 indicated a down regulation or reduction of the mRNA production, any fold change >0 indicated an up regulation or increase of mRNA production. Genes are filtered according to the fold change and the statistical significance of the changes (1-way-ANOVA test p<0.05)).

O=C(/C=C/c1ccc(CN(CCO)CCc2c[nH]c3ccccc23)cc1)NO [LAQ824, N-Hydroxy-3-[4-[[(2-hydroxyethyl)[2-(1H-indol-3-yl)-ethyl]-amino]methyl]phenyl]-2E-2-propenamide]
Fold change AMP-activated protein kinase family member 5 (ARK5) 204589_at (2 h): −1.1 fold
Fold change ANP32B acidic (leucine-rich) nuclear phosphoprotein 32 family, member B (SSP29) 201305_x_at (2 h): −1.3 fold
Fold change AVEN apoptosis, caspase activation inhibitor (Aven) 219366_at (2 h): −1.2 fold
Fold change B-cell CLL/lymphoma 3 (BCL3) 204908_s_at (2 h): −1.9 fold
Fold change BAI1-associated protein 2 (BAP2, IRSp53) 205293_x_at (2 h): 1.4 fold
Fold change BAI1-associated protein 3 (BAP3, KIAA0734) 204874_x_at (2 h): 1.0 fold
Fold change BAI1-associated protein 3 (BAP3, KIAA0734) 216356_x_at (2 h): 2.3 fold
Fold change BCL2-associated athanogene 2 (BAG-2) 209406_at (2 h): −1.4 fold
Fold change BCL2-interacting killer (apoptosis-inducing) (BP4, NBK, BIP1) 205780_at (2 h): 2.0 fold
Fold change BCL2-like 1 (BCL2L1) 206665_s_at (2 h): −1.2 fold
Fold change BH3 interacting domain death agonist (BID) 204493_at (2 h): 1.1 fold
Fold change Cyclin A2 (CCN1, CCNA) 203418_at (2 h): −1.3 fold
Fold change Cyclin-dependent kinase inhibitor 2D (p19, inhibits CDK4) (INK4D) 210240_s_at (2 h): 1.9 fold
Fold change DEC1-anti apoptosis (BHLHB2) 201169_s_at (2 h): −3.2 fold
Fold change Diphtheria toxin receptor (heparin-binding epidermal growth factor-like growth factor) (DTR) 203821_at (2 h): 9.8 fold
Fold change Early growth response 1 (TIS8, NGFI-A, KROX-24, ZIF-268) 201694_s_at (2 h): 1.4 fold
Fold change GMCL germ cell-less homolog (Drosophila) (GMCL) 218458_at (2 h): 1.7 fold
Fold change Katanin p80 (WD40-containing) subunit B 1 (KAT) 203163_at (2 h): 1.5 fold
Fold change NACHT, leucine rich repeat and PYD containing 1 (PP1044) 218380_at (2 h): 2.8 fold
Fold change Paternally expressed Gene 10 (PEG10) 212092_at (2 h): 1.1 fold
Fold change Paternally expressed Gene 10 (PEG10) 212094_at (2 h): 1.1 fold
Fold change Protein regulator of cytokinesis 1 (PRC1) 218009_s_at (2 h): −1.2 fold
Fold change SKAP55 protein 216899_s_at (2 h): 1.0 fold
Fold change Secreted frizzled-related protein 1 (FRP, SARP2) 202036_s_at (2 h): 1.1 fold
Fold change Secreted frizzled-related protein 1 (FRP, SARP2) 202037_s_at (2 h): 1.1 fold
Fold change Serine/threonine kinase 6 (AIK) 208079_s_at (2 h): 1.0 fold
Fold change Tribbles homolog 3a (TRIB3) 218145_at (2 h): −1.3 fold
Fold change Tumor necrosis factor receptor superfamily, member 6 (TNFRSF6) 215719_x_at (2 h): −1.3 fold
Fold change Tumor necrosis factor receptor superfamily, member 6 (TNFRSF6) 216252_x_at (2 h): −1.3 fold
Fold change Tumor protein p53 (Li-Fraumeni syndrome) 201746_at (2 h): 1.1 fold
Fold change Tumor protein p53 (Li-Fraumeni syndrome) 211300_s_at (2 h): 1.1 fold
Fold change member of the N-myc downregulated gene family (NDRG4) 209159_s_at (2 h): 1.2 fold
Fold change AMP-activated protein kinase family member 5 (ARK5) 204589_at (6 h): −4.3 fold
Fold change ANP32B acidic (leucine-rich) nuclear phosphoprotein 32 family, member B (SSP29) 201305_x_at (6 h): −1.6 fold
Fold change AVEN apoptosis, caspase activation inhibitor (Aven) 219366_at (6 h): −1.5 fold
Fold change B-cell CLL/lymphoma 3 (BCL3) 204908_s_at (6 h): −10.5 fold
Fold change BAI1-associated protein 2 (BAP2, IRSp53) 205293_x_at (6 h): 6.2 fold
Fold change BAI1-associated protein 3 (BAP3, KIAA0734) 204874_x_at (6 h): 5.1 fold
Fold change BAI1-associated protein 3 (BAP3, KIAA0734) 216356_x_at (6 h): 11.1 fold
Fold change BCL2-associated athanogene 2 (BAG-2) 209406_at (6 h): −2.4 fold
Fold change BCL2-interacting killer (apoptosis-inducing) (BP4, NBK, BIP1) 205780_at (6 h): 6.3 fold
Fold change BCL2-like 1 (BCL2L1) 206665_s_at (6 h): −4.2 fold
Fold change BH3 interacting domain death agonist (BID) 204493_at (6 h): −1.9 fold
Fold change Cyclin A2 (CCN1, CCNA) 203418_at (6 h): −2.3 fold
Fold change Cyclin-dependent kinase inhibitor 2D (p19, inhibits CDK4) (INK4D) 210240_s_at (6 h): 4.9 fold
Fold change DEC1-anti apoptosis (BHLHB2) 201169_s_at (6 h): −4.5 fold
Fold change Diphtheria toxin receptor (heparin-binding epidermal growth factor-like growth factor) (DTR) 203821_at (6 h): 8.5 fold
Fold change Early growth response 1 (TIS8, NGFI-A, KROX-24, ZIF-268) 201694_s_at (6 h): 3.6 fold
Fold change GMCL germ cell-less homolog (Drosophila) (GMCL) 218458_at (6 h): 4.1 fold
Fold change Katanin p80 (WD40-containing) subunit B 1 (KAT) 203163_at (6 h): 2.9 fold
Fold change NACHT, leucine rich repeat and PYD containing 1 (PP1044) 218380_at (6 h): 7.6 fold
Fold change Paternally expressed Gene 10 (PEG10) 212092_at (6 h): 2.0 fold
Fold change Paternally expressed Gene 10 (PEG10) 212094_at (6 h): 1.9 fold
Fold change Protein regulator of cytokinesis 1 (PRC1) 218009_s_at (6 h): −1.9 fold
Fold change SKAP55 protein 216899_s_at (6 h): 1.6 fold
Fold change Secreted frizzled-related protein 1 (FRP, SARP2) 202036_s_at (6 h): 1.6 fold
Fold change Secreted frizzled-related protein 1 (FRP, SARP2) 202037_s_at (6 h): 1.8 fold
Fold change Serine/threonine kinase 6 (AIK) 208079_s_at (6 h): −2.0 fold
Fold change Tribbles homolog 3a (TRIB3) 218145_at (6 h): −4.6 fold
Fold change Tumor necrosis factor receptor superfamily, member 6 (TNFRSF6) 215719_x_at (6 h): −3.2 fold
Fold change Tumor necrosis factor receptor superfamily, member 6 (TNFRSF6) 216252_x_at (6 h): −2.9 fold
Fold change Tumor protein p53 (Li-Fraumeni syndrome) 201746_at (6 h): −1.9 fold
Fold change Tumor protein p53 (Li-Fraumeni syndrome) 211300_s_at (6 h): −1.6 fold
Fold change member of the N-myc downregulated gene family (NDRG4) 209159_s_at (6 h): 2.8 fold
